According to publication PMC10002984, “Dual PTP1B/TC-PTP Inhibitors: Biological Evaluation of 3-(Hydroxymethyl)cinnoline-4(1H)-Ones” (International Journal of Molecular Sciences, 2023):

What was measured:
[1] = test system: Shp1 gene; assay: Gene expression in the liver of obese rats (qPCR), Shp1 gene; assay type: in vivo, rat; details: five-day treatment
Method: (§1) Further, six groups were formed: control (Con, n = 10), obesity (Ob, n = 10), obese rats with five-day treatment with compounds 1 (Ob + 1, n = 5), 2 (Ob + 2, n = 5), 3 (Ob + 3, n = 10), and 4 (Ob + 4, n = 10). All compounds were administered in DMSO (300 µL) at a daily dose of 7 mg/kg (1 and 2), 8 mg/kg (3), and 10 mg/kg (4) (i.p.), based on the results of the preliminary experiments. The used doses of compounds 1–4, in terms of the number of moles of each compound per kg of animal body weight, were equivalent. Control and obese rats received DMSO in the same volumes (300 µL), instead of the tested compounds. During the five days of the experiment, all animals were transferred to standard food and had free access to food and drinking water. […] The test was carried out on the morning of the next day after the last (fifth) injection of the compounds or DMSO, after a 10 h fast. The rest of the animals (n = 5 in each group) were anesthetized and decapitated on the last day of the experiment. The blood and liver samples were taken to measure blood glucose and hormone levels and gene expression in the liver.
The total RNA was isolated from the liver samples of rats using the “ExtractRNA Reagent” (Evrogen, Moscow, Russia), and the samples containing 1 μg of RNA were transcribed to cDNA using the random oligodeoxynucleotide primers and the “MMLV RT kit” (Evrogen, Russia). The amplification procedure was carried out in the mixture containing 10 ng of reverse transcribed product, 0.4 μM of the forward and reverse primers, and the “qPCRmix-HS SYBR + LowROX kit” (Evrogen, Russia). The amplified signals were detected using the “Applied Biosystems® 7500 Real-Time PCR System” (Life Technologies, Carlsbad, CA, USA, Thermo Fisher Scientific Inc., USA). The primers that were used to assess the expression of genes encoding the phosphatase PTP1B, TC-PTP, and SHP1 and the insulin and leptin receptors are presented in Table 4. The obtained data were calculated with the delta–delta Ct method and expressed as a fold expression, relative to the corresponding control. The expression of the gene encoding 18S RNA was used as an endogenous control.

[2] = test system: TCPTP gene; assay: Gene expression in the liver of obese rats (qPCR), TCPTP gene; assay type: in vivo, rat; details: five-day treatment, vs Ob group
Method: as §1
The total RNA was isolated from the liver samples of rats using the “ExtractRNA Reagent” (Evrogen, Moscow, Russia), and the samples containing 1 μg of RNA were transcribed to cDNA using the random oligodeoxynucleotide primers and the “MMLV RT kit” (Evrogen, Russia). The amplification procedure was carried out in the mixture containing 10 ng of reverse transcribed product, 0.4 μM of the forward and reverse primers, and the “qPCRmix-HS SYBR + LowROX kit” (Evrogen, Russia). The amplified signals were detected using the “Applied Biosystems® 7500 Real-Time PCR System” (Life Technologies, Carlsbad, CA, USA, Thermo Fisher Scientific Inc., USA). The primers that were used to assess the expression of genes encoding the phosphatase PTP1B, TC-PTP, and SHP1 and the insulin and leptin receptors are presented in Table 4. The obtained data were calculated with the delta–delta Ct method and expressed as a fold expression, relative to the corresponding control. […]

[3] = biological target: T1, human recombinant TC-PTP protein (Homo sapiens, UniProt P17706); assay: Phosphatase activity assay with DiFMUP, TC-PTP inhibition; assay type: biochemical; details: DiFMUP 35 µM, 80 ng/mL TC-PTP, compounds 0.1–80 μM; M ± SEM (n = 24); read-out: IC50 for the inhibitory effect on TC-PTP activity
T1 construct: purchased Sigma-Aldrich SRP0218
T1 sequence (P17706 1-415): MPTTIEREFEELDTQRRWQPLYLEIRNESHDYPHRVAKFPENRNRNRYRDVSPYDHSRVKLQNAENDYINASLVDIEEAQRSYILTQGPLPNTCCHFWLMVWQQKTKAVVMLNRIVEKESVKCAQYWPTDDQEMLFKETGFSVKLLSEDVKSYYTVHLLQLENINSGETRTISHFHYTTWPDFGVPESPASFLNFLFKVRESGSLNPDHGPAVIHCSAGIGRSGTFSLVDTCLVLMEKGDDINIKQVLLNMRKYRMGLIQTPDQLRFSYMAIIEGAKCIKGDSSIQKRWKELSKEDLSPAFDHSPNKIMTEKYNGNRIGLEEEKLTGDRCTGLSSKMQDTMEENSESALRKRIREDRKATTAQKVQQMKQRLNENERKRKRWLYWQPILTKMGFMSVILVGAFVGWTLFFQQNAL
Method: The measurement of the activity of the phosphatases PTP1B and TC-PTP and their inhibition was carried out using 6,8-difluoro-4methylumbelliferyl phosphate (DiFMUP), as previously described. The stock solution of recombinant human PTP1B protein (#ab51277, Abcam, Cambridge, UK), at a concentration of 1 µg/µL, was prepared in 25 mM Tris–HCl (pH 7.5), 20% glycerol, 2 mM β-mercaptoethanol, 1 mm EDTA, and 1 mM DTT, and stored at −20 °C. Active human recombinant TC-PTP protein was purchased from Sigma-Aldrich (#SRP0218, Saint Louis, MO, USA) as the aqueous buffer solution at a concentration of 2.9 mg/mL, and aliquots were stored at −80 °C. The fluorogenic substrate DiFMUP (#D6567, Molecular Probes, Thermo Fisher Scientific, Waltham, MA, USA) was dissolved at a concentration of 10 mM in N,N-dimethylformamide and stored in aliquots at −20 °C. The 6,8-difluoro-7-hydroxy-4-methylcoumarin (DiFMU, #D6566, Molecular Probes, Thermo Fisher Scientific, Waltham, MA, USA) was used as a reference fluorescent standard. For the IC50 determination, the assay was carried out in black flat bottom 96-well plates using a reaction volume of 100 µL. The phosphatases (PTP1B or TC-PTP) were preincubated with the tested compounds (0.1–80 µM) in 50 mM HEPES (pH 6.9), 100 mM NaCl, 1 mM EDTA, 2 mM DTT, 0.1 mg/mL BSA for 5 min at 37 °C. The following concentrations of the compounds were studied: 0.1, 0.2, 0.5, 1, 2, 5, 10, 20, 40, and 80 μM. The reactions were initiated by the addition of the fluorogenic substrate DiFMUP and diluted in the assay buffer. Progress curves for hydrolysis reaction were obtained with 25 µM of DiFMUP for 80 ng/mL PTP1B, and 35 µM of DiFMUP for 80 ng/mL TC-PTP. Fluorescence excitation of hydrolyzed DiFMUP and the fluorescent standard DiFMU was monitored at 355 nm and emission was detected at 460 nm for 6–10 min at 30 s intervals in a Fluoroskan Ascent FL microplate reader (Thermo Electron Corporation, Vantaa, Finland). Initial velocities of the reactions were used to calculate the IC50 values using GraphPad Prism.
The data on food intake, body weight, and biochemical parameters in rats, as well as the PCR data, were analyzed using the IBM SPSS Statistics 22 software (“IBM”, Armonk, NY, USA), and the results are presented as mean ± standard error of the mean (M ± SEM). All differences are considered significant at p < 0.05. The calculation of the IC50 values of the studied inhibitors for the initial velocities of enzymatic reactions (PTP1B, TC-PTP) was carried out using the nonlinear regression analysis with GraphPad Prism 8 (“GraphPad Software, Inc.”, Boston, MA, USA). The statistical analysis was carried out using the Wilcoxon test for pairwise comparison and Dunn’s test for multiple comparisons.

Row | SMILES | expression of the Shp1 gene in the liver [1] | expression of the TCPTP gene in the liver [2] | IC50 [3]
1 | O=c1c(CO)n[nH]c2ccc(Br)cc12 [Compound 4, 6-Bromo-3-(hydroxymethyl)cinnolin-4(1H)-one] | did not affect | significant difference to the Ob group | 26.5 ± 4.66 µM
2 | O=c1c(CO)n[nH]c2ccc(Cl)cc12 [Compound 3, 6-Chloro-3-(hydroxymethyl)cinnolin-4(1H)-one] | did not affect | significant difference to the Ob group | 2.98 ± 0.76 µM
3 | O=c1c(CO)n[nH]c2ccccc12 [Compound 1] | increased | significant difference to the Ob group | 18.9 ± 2.06 µM
